The values below are quoted from earlier work in article PMC8243326, “Data-Driven Ensemble Docking to Map Molecular Interactions of Steroid Analogs with Hepatic Organic Anion Transporting Polypeptides” (Journal of Chemical Information and Modeling, 2021).

One data set has as its target T1, OATP1B1 (Homo sapiens, UniProt Q9Y6L6).
T1 sequence (Q9Y6L6 1-691): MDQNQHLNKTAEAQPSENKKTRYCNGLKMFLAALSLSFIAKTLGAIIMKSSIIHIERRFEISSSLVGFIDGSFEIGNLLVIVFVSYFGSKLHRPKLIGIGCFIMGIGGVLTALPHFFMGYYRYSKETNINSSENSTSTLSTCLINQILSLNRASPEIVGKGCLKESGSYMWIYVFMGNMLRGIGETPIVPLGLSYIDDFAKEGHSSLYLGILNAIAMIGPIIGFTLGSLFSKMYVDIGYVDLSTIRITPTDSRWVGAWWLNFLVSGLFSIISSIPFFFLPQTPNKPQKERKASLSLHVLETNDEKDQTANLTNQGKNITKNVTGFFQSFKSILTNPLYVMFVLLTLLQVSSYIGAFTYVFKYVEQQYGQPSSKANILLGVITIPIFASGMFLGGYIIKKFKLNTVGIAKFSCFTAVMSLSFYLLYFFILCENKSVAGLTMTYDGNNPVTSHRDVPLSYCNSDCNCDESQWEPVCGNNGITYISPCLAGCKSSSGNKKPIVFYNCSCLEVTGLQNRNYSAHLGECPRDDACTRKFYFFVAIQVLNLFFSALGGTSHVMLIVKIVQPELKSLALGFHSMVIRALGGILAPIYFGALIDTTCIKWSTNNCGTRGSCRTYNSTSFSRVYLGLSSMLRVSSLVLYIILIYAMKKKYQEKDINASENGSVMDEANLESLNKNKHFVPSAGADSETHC
Particulars: cited from earlier work; for median bioactivity value: OATP1B1, public data sources.

The next data set has as its target T2, OATP1B3 (Homo sapiens, UniProt Q9NPD5).
T2 sequence (Q9NPD5 1-702): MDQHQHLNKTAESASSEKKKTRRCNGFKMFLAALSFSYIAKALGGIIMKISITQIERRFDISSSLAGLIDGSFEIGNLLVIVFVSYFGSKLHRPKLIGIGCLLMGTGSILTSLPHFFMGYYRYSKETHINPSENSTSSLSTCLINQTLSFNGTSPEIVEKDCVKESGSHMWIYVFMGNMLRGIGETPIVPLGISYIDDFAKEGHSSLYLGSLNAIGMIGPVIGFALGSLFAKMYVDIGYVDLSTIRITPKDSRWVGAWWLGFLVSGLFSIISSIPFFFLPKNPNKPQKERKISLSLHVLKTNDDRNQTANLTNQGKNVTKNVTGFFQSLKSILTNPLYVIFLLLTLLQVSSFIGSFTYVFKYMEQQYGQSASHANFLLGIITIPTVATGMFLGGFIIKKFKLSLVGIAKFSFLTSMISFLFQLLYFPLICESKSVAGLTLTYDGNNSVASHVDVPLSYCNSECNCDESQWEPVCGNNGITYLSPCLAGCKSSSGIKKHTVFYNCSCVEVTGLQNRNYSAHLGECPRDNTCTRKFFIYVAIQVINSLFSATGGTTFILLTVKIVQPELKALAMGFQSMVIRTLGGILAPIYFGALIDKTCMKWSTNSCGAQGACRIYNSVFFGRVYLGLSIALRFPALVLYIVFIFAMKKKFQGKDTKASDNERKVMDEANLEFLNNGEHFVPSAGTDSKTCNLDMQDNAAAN
Further details: expressed in transfected cells; host or cells: A431 cells. The settings on record: public data sources; cited from earlier work.

A further data set addresses T3, OATP2B1 (Homo sapiens, UniProt O94956).
T3 sequence (O94956 1-709): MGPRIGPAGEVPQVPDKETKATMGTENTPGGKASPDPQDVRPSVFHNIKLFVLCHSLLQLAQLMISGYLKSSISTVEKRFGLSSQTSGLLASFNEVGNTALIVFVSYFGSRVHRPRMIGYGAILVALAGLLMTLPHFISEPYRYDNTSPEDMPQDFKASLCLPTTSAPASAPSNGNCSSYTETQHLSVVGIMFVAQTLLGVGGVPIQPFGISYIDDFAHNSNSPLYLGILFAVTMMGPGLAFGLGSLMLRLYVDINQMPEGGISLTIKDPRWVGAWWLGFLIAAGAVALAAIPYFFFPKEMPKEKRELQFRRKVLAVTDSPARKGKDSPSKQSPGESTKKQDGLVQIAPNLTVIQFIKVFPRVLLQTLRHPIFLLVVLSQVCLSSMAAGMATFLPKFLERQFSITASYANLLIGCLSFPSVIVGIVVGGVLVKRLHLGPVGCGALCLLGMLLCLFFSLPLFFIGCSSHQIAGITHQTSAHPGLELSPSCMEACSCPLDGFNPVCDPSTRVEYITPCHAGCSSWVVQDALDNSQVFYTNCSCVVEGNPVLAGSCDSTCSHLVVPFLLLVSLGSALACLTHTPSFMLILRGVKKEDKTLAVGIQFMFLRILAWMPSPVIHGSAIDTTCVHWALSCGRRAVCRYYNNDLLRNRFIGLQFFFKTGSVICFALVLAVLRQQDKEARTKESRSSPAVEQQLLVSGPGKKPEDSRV
Also on record: method as in earlier work. The settings on record: Figure S14; public data sources; cited from earlier work.

SMILES strings stand for the structures.

Consider `C[C@H](CCC(=O)O)[C@H]1CC[C@H]2[C@@H]3CC[C@@H]4C[C@H](O)CC[C@]4(C)[C@H]3CC[C@]12C` [lithocholate], for which the “median bioactivity value” at OATP1B1 was 0.918 µM; on OATP1B3, 6.807 µM.
`C[C@]12CC[C@@H]3c4ccc(OS(=O)(=O)O)cc4CC[C@H]3[C@@H]1CCC2=O` [E-3-S, estrone-3-sulfate]: on OATP1B1, the “median bioactivity value” is 0.450 µM. Further, the “transporter selectivity (in words)” value on OATP1B1 (OATP1B1 vs OATP1B3, known from literature) is “OATP1B1 selective”. Besides, at OATP2B1, the IC50 is 10 µM.
Regarding `COC(=O)CC[C@@H](C)[C@H]1CC[C@H]2[C@@H]3[C@H](O)C[C@@H]4C[C@H](O)CC[C@]4(C)[C@H]3C[C@H](O)[C@]12C` [cholic acid methyl ester], the figures for the “median bioactivity value” on OATP1B1 and on OATP1B3 were 0.20 µM and 0.13 µM, respectively.
